In patent US20150265572A1, “INJECTABLE CANCER COMPOSITIONS” (GENSPERA, INC., priority 2012, published 2015):
Each block holds one molecule with its values, some of them ahead of it. Starred links: 1 amine or outer side, 2 acyl side, 3 side chain; linkers in the order of their positions; H or OH if unused. Non-standard residues stand in square brackets, D forms with d. Residues, ends and D or L forms follow the SMILES beside them. γGlu = O=C(O)[C@H](CCC(=O)[*:2])N[*:1]

Assays:
[1] = Stability to hydrolysis in human plasma; format: in vitro ADME
[2] = Stability to hydrolysis in mouse plasma; format: in vitro ADME
[3] = system: TSU prostate cancer cell line; assay: LD50 for killing against TSU prostate cancer cell line; format: cell-based, human; settings: TSU prostate cancer cell line (non-PSMA producing)
From the text: The prodrugs are hydrolyzed by PSMA and release the corresponding Asp- or Glu-containing thapsigargin analogs, or the thapsigargin analog itself, and also lack potent cytotoxicity when not metabolized by PSMA. Non-PSMA producing TSU-Pr1 human prostate cancer cell line is exposed to each of the PSMA prodrugs at doses that are approximately 50-times the LD50 for the corresponding free thapsigargin analog.

[4] = Stability of peptides in serum; format: in vitro ADME

stability to hydrolysis in plasma [1]: completely stable
stability to hydrolysis in plasma [2]: completely stable
Molecule: N[C@@H](CC(=O)O)C(=O)N[C@@H](CCC(=O)N[C@@H](CCC(=O)N[C@@H](CC(=O)O)C(=O)N[C@@H](CCC(=O)O)C(=O)O)C(=O)O)C(=O)O [Asp-Glu*Glu*Asp-Glu] (H-D[γGlu][γGlu]DE-OH; N-terminus and C-terminus assumed)

Molecule: 12ADT-Glu [Composition 12ADT-Glu]
LD50 value for killing [3]: approximately 50 nM

stability in serum [4]: high stability
Molecule: NC(=O)CC[C@H](NC(=O)[C@H](CC(=O)O)NC(=O)CC[C@H](NC(=O)CC[C@H](NC(=O)CC[C@H](N)C(=O)O)C(=O)O)C(=O)O)C(=O)O [Glu*Glu*Glu*Asp-Gln] ({γGlu-γGlu-γGlu}-Asp-Gln-OH; N-terminus and C-terminus assumed)

stability in serum [4]: high stability
Molecule: N[C@@H](CCC(=O)N[C@@H](CCC(=O)N[C@@H](CCC(=O)N[C@@H](CC(=O)O)C(=O)N[C@@H](CCC(=O)O)C(=O)O)C(=O)O)C(=O)O)C(=O)O [Glu*Glu*Glu*Asp-Glu] ({γGlu-γGlu-γGlu}-Asp-Glu-OH; N-terminus and C-terminus assumed)
